Assay results: PMC6792352, “Limited Chemical Structural Diversity Found to Modulate Thyroid Hormone Receptor in the Tox21 Chemical Library” (Environmental Health Perspectives, 2019)
Structures can show the parent of a compound that is named as a salt.

Assay: in vitro
Settings: rat, gh3-tre-luc cells

Row | Compound | CC50 at 24 h (AC50 (uM) modified / 1000) [µM] | also measured
1 | OCCOC[C@H]1O[C@H](OCCO)[C@H](OCCO)[C@@H](OCCO)[C@@H]1OCCO [Hydroxyethyl starch] | > 50 | –
2 | CCCOC(=O)CC [Propyl propionate] | > 90 | –
3 | O=C(O)CCCc1ccc(N(CCCl)CCCl)cc1 [Chlorambucil] | 61 | –
4 | CC(=O)[C@H]1CC[C@H]2[C@@H]3CC[C@@H]4C[C@H](O)CC[C@]4(C)[C@H]3CC[C@]12C [Eltanolone] | – | CC50 at 24 h (AC50 (uM) modified / 1000, Tox21_110001=Tox21_112042, viability, 1 nM T3 present, 24 h): > 50 µM
5 | CO[Si](CCCCl)(OC)OC [(3-Chloropropyl)trimethoxysilane] | > 90 | –
6 | O=C(c1ccc(F)cc1)C1CCN(CCn2c(=S)[nH]c3ccccc3c2=O)CC1 [Altanserin hydrochloride] | > 50 | –
7 | C=C(C)C(=O)OCC(C)(C)COC(=O)C(=C)C [2,2-Dimethylpropane-1,3-diyl bis(2-methylprop-2-enoate)] | > 90 | –
8 | COC(=O)c1ccc(C(=O)OC)cc1 [Dimethyl terephthalate] | > 90 | –
9 | NC(Cc1ccc(F)cc1)C(=O)O (racemic) [4-Fluoro-dl-phenylalanine] | 2.98 | –
10 | C=C(C)C1CC=C(C)[C@@H](O)C1 (stereo partly drawn) [Carveol] | > 90 | –
11 | C[C@H]1CC[C@@H]2[C@@H](C)[C@H]3[C@H](C[C@H]4[C@@H]5CC=C6C[C@@H](O[C@@H]7O[C@H](CO)[C@H](O)[C@H](O[C@@H]8O[C@H](CO)[C@@H](O)[C@H](O)[C@H]8O)[C@H]7O[C@@H]7O[C@@H](C)[C@H](O)[C@@H](O)[C@H]7O)CC[C@]6(C)[C@H]5CC[C@]34C)N2C1 [alpha-Solanine] | – | CC50 at 24 h (AC50 (uM) modified / 1000, Tox21_110001=Tox21_111132, viability, 1 nM T3 present, 24 h): 17.5 µM; CC50 at 24 h (AC50 (uM) modified / 1000, Tox21_110001=Tox21_200104, viability, 1 nM T3 present, 24 h): 16.1 µM
12 | O=C(Nc1ccccc1)Nc1ccccc1 [Diphenylurea] | > 90 | –
13 | O=C(O)CCc1nc(-c2ccccc2)c(-c2ccccc2)o1 [Oxaprozin] | > 50 | –
14 | CC[C@H]1OC(=O)C[C@@H](O)[C@H](C)[C@@H](O[C@@H]2O[C@H](C)[C@@H](O)[C@H](N(C)C)[C@H]2O)[C@@H](CCN2C[C@H](C)C[C@H](C)C2)C[C@@H](C)C(=O)/C=C/C(C)=C/[C@@H]1CO[C@@H]1O[C@H](C)[C@@H](O)[C@@H](OC)[C@H]1OC [Tilmicosin] | > 50 | –
15 | CC(C)(C)N(CCO)CCO [2,2'-(tert-Butylimino)diethanol] | > 90 | –
16 | CC[N+](CC)(CC)CCOc1ccc(/C=C/c2ccccc2)cc1 [Stilonium iodide] | > 50 | –
17 | O=C(COP(=O)(O)O)[C@@H](O)[C@H](O)[C@H](O)COP(=O)(O)O [D-Fructose 1,6-bisphosphate trisodium] | > 50 | –
18 | CCN(CC)CCNC(=O)c1cc(Cl)c(N)cc1OC [Metoclopramide] | > 50 | –
19 | CCCCCOC(=O)COc1cc(N2C(=O)C3=C(CCCC3)C2=O)c(F)cc1Cl [Flumiclorac-pentyl] | > 90 | –
20 | C[C@H](Cc1ccc(O)c(O)c1)[C@@H](C)Cc1ccc(O)c(O)c1 [Nordihydroguaiaretic acid] | 8.42 | –
21 | Cc1cccc(C)c1NC(=O)/N=C1\CCCN1C [Xilobam] | > 50 | –
22 | O=C(N/N=C/c1ccc([N+](=O)[O-])o1)c1cc([N+](=O)[O-])cc([N+](=O)[O-])c1O [Nifursol] | 32.5 | –
23 | Cc1ccc(S(=O)(=O)O)cc1C [Sodium xylenesulfonate] | > 90 | –
24 | Cc1cnc(C(=O)O)c[n+]1[O-] [Acipimox] | > 50 | –
25 | c1ccc2c(c1)Sc1ccccc1N2C[C@@H]1CN2CCC1CC2 [Levomequitazine] | > 50 | –

Row | Compound | CC50 at 24 h (AC50 (uM) modified / 1000) [µM] | also measured
26 | CCN(CC)c1c([N+](=O)[O-])cc(C(F)(F)F)c(N)c1[N+](=O)[O-] [Dinitramine] | 85.3 | –
27 | CN(C)CCN(Cc1ccccc1)c1ccccn1 [Tripelennamine citrate] | > 50 | –
28 | Nc1nc2c(ncn2COCCO)c(=O)[nH]1 [Acyclovir] | > 20 | –
29 | OCC(O)COc1ccc(Cl)cc1 (stereo not drawn) [Chlorphenesin] | > 50 | –
30 | CC[C@H]1NC(=O)[C@@H](NC(=O)c2ncccc2O)[C@@H](C)OC(=O)[C@H](c2ccccc2)NC(=O)[C@@H]2CC(=O)CCN2C(=O)[C@H](Cc2ccccc2)N(C)C(=O)[C@@H]2CCCN2C1=O [Virginiamycin S1] | > 50 | –
31 | COP(=O)(OC)O/C(=C\Cl)c1cc(Cl)c(Cl)cc1Cl [Z-Tetrachlorvinphos] | – | CC50 at 24 h (AC50 (uM) modified / 1000, Tox21_110001=Tox21_301751, viability, 1 nM T3 present, 24 h): > 90 µM
32 | c1cnc(N2CCN(Cc3ccc4c(c3)OCO4)CC2)nc1 [Piribedil] | > 50 | –
33 | Brc1cc(Br)c(Oc2cc(Br)c(Br)cc2Br)cc1Br [2,2',4,4',5,5'-Hexabromodiphenyl ether] | > 50 | –
34 | CC[Si](OC(C)=O)(OC(C)=O)OC(C)=O [Ethyltriacetoxysilane] | > 90 | –
35 | Cc1cccc(Br)c1 [3-Bromotoluene] | > 90 | –
36 | Cc1c(N)nc([C@H](CC(N)=O)NC[C@H](N)C(N)=O)nc1C(=O)N[C@H](C(=O)N[C@H](C)[C@@H](O)[C@H](C)C(=O)N[C@H](C(=O)NCCc1nc(-c2nc(C(=O)NCCCN[C@@H](C)c3ccccc3)cs2)cs1)[C@@H](C)O)[C@@H](O[C@@H]1O[C@@H](CO)[C@@H](O)[C@H](O)[C@@H]1O[C@H]1O[C@H](CO)[C@@H](O)[C@H](OC(N)=O)[C@@H]1O)c1c[nH]cn1 [Peplomycin sulfate] | 2.77 | –
37 | COC(C=C(C)CCC=C(C)C)OC [1,1-Dimethoxy-3,7-dimethylocta-2,6-diene] | > 90 | –
38 | O=C(Nc1cccc(C2=NCCN2)c1)Nc1cccc(C2=NCCN2)c1 [Imidocarb dipropionate] | > 50 | –
39 | COc1c(Cl)c(Cl)c(Cl)c(Cl)c1Cl [Pentachloroanisole] | > 90 | –
40 | OC[C@@H](O)C(O)[C@H](O)CO [D-Arabinitol] | > 50 | –
41 | C#Cc1cccc(Nc2ncnc3cc(OCCOC)c(OCCOC)cc23)c1 [Erlotinib] | > 50 | –
42 | Clc1cccc(C(c2ccc3[nH]cnc3c2)n2ccnc2)c1 (stereo not drawn) [Liarozole hydrochloride] | > 50 | –
43 | CCCO[Si](OCCC)(OCCC)OCCC [Tetrapropyl orthosilicate] | > 90 | –
44 | CC(C)C(C(=O)OC(C#N)c1cccc(Oc2ccccc2)c1)c1ccc(Cl)cc1 (stereo not drawn) [Fenvalerate] | > 90 | –
45 | ClCCl [Dichloromethane] | > 90 | –
46 | CCC1(c2ccccc2)C(=O)NC(=O)N(C(=O)c2ccccc2)C1=O (stereo not drawn) [Benzobarbital] | > 50 | –
47 | CC(=O)OCC(=O)[C@@]1(O)CC[C@H]2[C@@H]3CCC4=CC(=O)CC[C@]4(C)[C@H]3[C@@H](O)C[C@@]21C [Hydrocortisone acetate] | > 50 | –
48 | CC1CC(OC(=O)C(O)c2ccccc2)CC(C)(C)C1 (stereo not drawn) [Cyclandelate] | > 50 | –
49 | C=CCOC(=O)C(C)(C)OC(=O)c1cc(-n2c(=O)cc(C(F)(F)F)n(C)c2=O)ccc1Cl [Butafenacil] | > 90 | –
50 | CCC(C)COC(=O)CC(C)C (stereo not drawn) [2-Methylbutyl isovalerate] | > 90 | –

Row | Compound | CC50 at 24 h (AC50 (uM) modified / 1000) [µM] | also measured
51 | C=C(C)C(=O)OC(C)CO (stereo not drawn) [Hydroxypropyl methacrylate] | > 90 | –
52 | CN(C)[C@@H]1C(=O)C(C(=O)NCN2CCCC2)=C(O)[C@@]2(O)C(=O)C3=C(O)c4c(O)cccc4[C@@](C)(O)C3C[C@@H]12 (stereo partly drawn) [Rolitetracycline hydrochloride] | > 50 | –
53 | CS(=O)(=O)Cl [Methanesulfonyl chloride] | > 90 | –
54 | CN(C)C(=O)Oc1cc(OC(=O)N(C)C)cc(C(O)CNC(C)(C)C)c1 (stereo not drawn) [Bambuterol hydrochloride] | > 20 | –
55 | O=NN1CCCC1 [N-Nitrosopyrrolidine] | – | CC50 at 24 h (AC50 (uM) modified / 1000, Tox21_110001=Tox21_202356, viability, 1 nM T3 present, 24 h): > 100 µM; CC50 at 24 h (AC50 (uM) modified / 1000, Tox21_110001=Tox21_302913, viability, 1 nM T3 present, 24 h): > 90 µM
56 | CC[C@]1(O)CC[C@H]2[C@@H]3CCC4=CCCC[C@@H]4[C@H]3CC[C@@]21C [Ethylestrenol] | > 50 | –
57 | CCCCOC(=O)CCC(C)=O [Butyl 4-oxopentanoate] | > 90 | –
58 | CCCCCCCCCCCCCCCCCC(=O)OCCO [2-Hydroxyethyl octadecanoate] | > 50 | –
59 | C/C=C/C=C/C=O [(2E,4E)-2,4-Hexadienal] | > 90 | –
60 | COc1cc(OC)nc(Sc2cccc(Cl)c2C(=O)O)n1 [Pyrithiobac-sodium] | > 90 | –
61 | O=C(OCCCCCOC(=O)c1ccccc1)c1ccccc1 [Pentane-1,5-diyl dibenzoate] | > 90 | –
62 | CNNCc1ccc(C(=O)NC(C)C)cc1 [Procarbazine hydrochloride] | > 50 | –
63 | Cc1nc2ccccc2c(=O)n1-c1ccccc1Cl [Mecloqualone] | – | CC50 at 24 h (AC50 (uM) modified / 1000, Tox21_110001=Tox21_112870, viability, 1 nM T3 present, 24 h): 42.7 µM
64 | CCOc1ccc(N)c([N+](=O)[O-])c1 [4-Ethoxy-2-nitroaniline] | > 90 | –
65 | CCCCCC/C=C/C(=O)OC [Methyl (2E)-2-nonenoate] | > 90 | –
66 | C1CN(CCOCCN2CCOCC2)CCO1 [4,4'-(Oxydiethylene)bis(morpholine)] | > 90 | –
67 | Nc1ccn([C@@H]2O[C@H](CO)[C@@H](O)C2(F)F)c(=O)n1 [Gemcitabine hydrochloride] | 0.153 | –
68 | N=C(N)NN=C1C=CC(=NNC(N)=S)C=C1 [Ambazone] | 23 | –
69 | CCC(C)OC(=O)c1ccc(O)cc1 (stereo not drawn) [sec-Butylparaben] | > 90 | –
70 | C/C=C\C/C=C/CCCCCCCCOC(C)=O [(9E,12Z)-9,12-Tetradecadien-1-ol acetate] | > 90 | –
71 | Cc1nc(-c2ccc3c(c2)CCN(CCC2CCC(NC(=O)/C=C/c4ccc(F)cc4)CC2)CC3)no1 (stereo not drawn) [SB413217A] | 8.41 | –
72 | CC1(C)CO[C@@H](CC(=O)O)CN1 [SCH 50911] | > 50 | –
73 | CC(C)=CCC/C(C)=C\CO [(2Z)-3,7-Dimethylocta-2,6-dien-1-ol] | > 90 | –
